Laboratory results published in patent publication US7279502B2, “Polyamine analog conjugates and quinone conjugates as therapies for cancers and prostate diseases” (Cellgate, Inc., priority 1999, dated 2007).
pEC50, pIC50: −log10 of the molar value. Like-named read-outs stand apart in the source and are kept apart here.

Key:
Assay type in all cases: cell-based
[1] = tested on: human prostate adenocarcinoma cell line PC-3; assay: MTT assay, quinones, PC-3; conditions: read-out: ID50 PC-3
Procedure: (§1) Cell Culture: The human lung adenocarcinoma cell line, A549, and human prostatic cancer cell line, DUPRO, were a gift from Dr. M. Eileen Dolan, University of Chicago, Department of Medicine. A549 was grown in Ham's F-12K medium (Fisher Scientific, Itasca, Ill.) supplemented with 10% fetal bovine serum and 2 mM L-glutamine. DUPRO was grown in RPMI-1640 supplemented with 10% fetal bovine serum. The human colon carcinoma cell line, HT29, and the human breast carcinoma cell line, MCF7, were obtained from the American Type Culture Collection, Rockville, Md. HT29 cells were grown in McCoy's 5A medium (Gibco, BRL, Gaithersburg, Md.) supplemented with 10% fetal bovine serum. MCF7 cells were grown in Richter's Improved Modified Eagle's medium supplemented with 10% fetal bovine serum and 2.2 g/L sodium bicarbonate. The human prostate adenocarcinoma cell lines, LNCAP, PC-3 and DU145, were gifts from Dr. George Wilding, University of Wisconsin Comprehensive Cancer Center and the Department of Medicine, and were grown in Dulbecco's Modified Eagle's medium supplemented with a 5% fetal bovine serum. The malignant glioma cell line, U251MG NCI was obtained from the brain tumor tissue bank at the University of California, San Francisco Department of Neurosurgery, and was grown in Dulbecco's Modified Eagle's medium supplemented wth 10% fetal bovine serum. DUPRO, A549 and MCF7 cells were grown in 100 units/mL penicillin and 100 μg/mL streptomycin. HT29 and U251MG NCI cells were grown in 50 μg/mL gentamycin. LNCAP, PC-3 and DU145 cells were maintained in 1% antibiotic antimycotic solution (Sigma, St. Louis, Mo.). All cell cultures were maintained at 37° C. in 5% CO2/95% humidified air.
(§2) MTT assay. Exponentially growing monolayer cells were plated in 96 well plates at a density of 500 cells/well and allowed to grow for 24 h. Serially diluted drug solutions were added such that the final drug concentrations in the treatment media were between 0 and 35 μM. Cells were incubated with drug at either 4 hr or 72 hr. After 4 hr and 72 hr treatment, drugs were removed, fresh media (without) drug (100 uL) was added and cells were incubated for 6 days. After six days, 25 μL of a Dulbecco's phosphate-buffered saline solution containing 5 mg/mL of MTT (Thiazolyl blue) (Sigma) was added to each well and incubated for 4 h at 37° C. Then 100 μL of lysis buffer (20% sodium dodecyl sulfate, 50% N,N-dimethylformamide and 0.8% acetic acid, pH 4.7) was added to each well and incubated for an additional 22 h. A microplate reader (E max, Molecular Devices, Sunnyvale, Calif.) set at 570 nm was used to determine the optical density. Results were plotted as a ratio of the optical density in drug treated wells to the optical density in wells treated with vehicle alone. Plotting and estimation of ID50 values were accomplished with manufacturer supplied software. The data is presented below in Tables 3, 4, 5 and 6.

[2] = tested on: human prostate cancer cells PC3; assay: MTT assay, polyamine analogs, PC3; conditions: for pEC50: PC-3, survival of cultured PC3 cells, figure legends, read-out: ED50 (the source's name)
Procedure: (§3) Human breast cancer cell line MCF7 was grown in Richter's Improved Modified Eagle's Medium supplemented with 10% fetal bovine serum (FBS) and 2.2 g/L sodium bicarbonate. Human brain tumor cell line U251 MG-NCI was grown in Dulbecco's Modified Eagle's Medium supplemented with 10% FBS. Human lung cancer cell line A549 was grown in Ham's F-12K medium (Cellgro, Mediatech, Inc., VA), supplemented with 10% FBS and 2 mM L-glutamine. Human colon cancer cell line HT29 was cultured in McCoy's 5A medium (Gibco, BRL, Gaithersburg, Md.) supplemented with 10% FBS. Human prostate cancer cell lines PC-3, LNCAP and DuPro were grown in RPMI 1640 Medium (Cellgro, Mediatech, Inc., VA) supplemented with 10% FBS. Another human prostate cancer cell line DU145 was grown in Dulbecco's Modified Eagle's Medium (Gibco, BRL, Gaithersburg, Md.) supplemented with 5% FBS. The A549, MCF7, PC3, LNCAP and DuPro cell lines were cultured in 100 units/mL penicillin and 100 μg/mL streptomycin. HT29 and U251MG cell lines were grown in 50 μg/mL gentamycin (Gibco, BRL, Gaithersburg, Md.). DU145 cell line was maintained in 1% antibitic-antimycotic solution (Sigma, St. Louis, Mo.). The cell cultures were maintained at 37° C. in 5% CO2/95% humidified air. DuPro cells were obtained from M. Eileen Dolan, University of Chicago. All other cells are available from the American Type Culture Collection, Rockville, Md.
(§4) A conventional MTT assay was used to evaluate percent cell survival. Exponentially growing monolayer cells were plated in 96-well plates at a density of 500 cells per well and allowed to grow for 24 hours. Serial dilutions of the drugs were added to the wells. Six days after drug treatment, 25 μl of MTT solution (5 mg/ml) was added to each well and incubated for 4 hours at 37° C. Then 100 μl of lysis buffer (20% sodium dodecyl sulfate, 50% DMF, and 0.8% acetic acid, pH 4.7) was added to each well and incubated for an additional 22 hours. A microplate reader (“EMAX”-brand, Molecular Devices, Sunnyvale, Calif.) set at 570 nm was used to determine the optical density of the cultures. Results are expressed as a ratio of the optical density in drug-treated wells to the optical density in wells treated with vehicle only.

[3] = tested on: human prostate cancer cells DU145; assay: MTT assay, polyamine analogs, DU145; conditions: Homo sapiens; for pIC50: DU-145, 144 h, read-out: concentration needed for 50% growth inhibition (ID50) DU-145, Table 2, MTT six days after drug treatment; for pEC50: DU-145, survival of cultured DU145 cells, figure legends, read-out: ED50 (the source's name)
Procedure: as §3, §4

[4] = tested on: human prostate cancer cells DUPRO; assay: MTT assay, polyamine analogs, DUPRO; conditions: Homo sapiens, DuPro; for pIC50: 144 h, read-out: concentration needed for 50% growth inhibition (ID50) DUPRO, Table 2, MTT six days after drug treatment; for pEC50: survival of cultured DUPRO cells, figure legends, read-out: ED50 (the source's name)
Procedure: as §3, §4

[5] = tested on: human colon cancer cells HT29; assay: MTT assay, polyamine analogs, HT29; conditions: for pIC50: HT-29, 144 h, read-out: concentration needed for 50% growth inhibition (ID50) HT-29, Table 2, MTT six days after drug treatment; for pEC50: HT-29, survival of cultured HT29 cells, figure legends, read-out: ED50 (the source's name)
Procedure: (§5) As shown in Table 2 and FIGS. 1-32, several novel conformationally restricted polyamine analogs were tested for anti-proliferative properties against cancer cells.
as §3, §4

[6] = tested on: human lung cancer cells A549; assay: MTT assay, polyamine analogs, A549; conditions: for pEC50: A549, survival of cultured A549 cells, figure legends, read-out: ED50 (the source's name)
Procedure: as §5, §3, §4

[7] = tested on: human breast cancer cells MCF7; assay: MTT assay, polyamine analogs, MCF7; conditions: for pIC50: MCF7, 144 h, read-out: concentration needed for 50% growth inhibition (ID50) MCF7, Table 2, MTT six days after drug treatment; for pEC50: MCF7, survival of cultured MCF7 cells, figure legends, read-out: ED50 (the source's name)
Procedure: as §5, §3, §4

[8] = tested on: human brain tumor cells U251 MG NCI; assay: MTT assay, polyamine analogs, U251 MG NCI; conditions: for pIC50: U-251, 144 h, read-out: concentration needed for 50% growth inhibition (ID50) U251MG, Table 2, MTT six days after drug treatment; for pEC50: U-251, survival of cultured U251 MG NCI cells, figure legends, read-out: ED50 (the source's name)
Procedure: as §3, §4

[9] = tested on: human breast carcinoma cell line, MCF7; assay: MTT assay, quinones, MCF7; conditions: Table 4, treatment time not given in cell, read-out: ID50 Breast MCF7
Procedure: as §1, §2

[10] = Table 3, treatment time not given in cell
[11] = Homo sapiens, A549, 144 h, read-out: concentration needed for 50% growth inhibition (ID50) A549, Table 2, MTT six days after drug treatment
[12] = read-out: concentration needed for 50% growth inhibition (ID50) A549, Table 2, MTT six days after drug treatment

SMILES	pIC50 [1, 10]	pEC50 [2]	pIC50 [3]	pEC50 [3]	pIC50 [5]	pEC50 [5]	pIC50 [8]	other results
O=C1C=C(OCCCCCCOC2=CC(=O)c3ccccc3C2=O)c2ccccc2C1=O [SL-11065]	5.85							
CCNCCCNCC1CCCC1NCCCNCC (centres unmarked) [SL-11105]		< 4.51	5.80	5.80	4.60	4.60	4.59	pIC50 ([2]; 144 h, read-out: concentration needed for 50% growth inhibition (ID50) PC-3, Table 2, MTT six days after drug treatment): < 4.51; pIC50 [4]: < 4.51; pEC50 [4]: 6.37; pIC50 [6, 11]: < 4.51; pEC50 ([6]; Homo sapiens): 6.37; pIC50 [7]: < 4.51; pEC50 [7]: < 4.51; pEC50 [8]: 4.59
CCCCN/C=C1\C=C(O)C(=O)c2ccccc21 [SL-11089]	4.96							pIC50 [9]: < 4.51
CCNC(=O)CCNC(=O)CCCNC(=O)CCNC(=O)CCCCOC1=CC(=O)C(=O)c2ccccc21 [SL-11085]	< 4.51							
CCNCCCCNCC1CC1CNCCCCNCC (centres unmarked) [SL-11098]			7.74		6.40		7.00	pIC50 [4]: 7.10; pIC50 [6, 11]: 6.29
CCCCN(CC1=CC(=O)C(=O)c2ccccc21)C(=O)CCC(=O)N1CCOCC1 [SL-11096]	5.44							pIC50 [9]: 5.42
CN(C)c1cccc(OC(=O)CCCCOC2=CC(=O)C(=O)c3ccccc32)c1 [SL-11074]	5.34							
O=C1C=C(OCCCCCCOc2ccccc2)c2ccccc2C1=O [SL-11068]	5.82							
CCNCCCCNC/C=C\CNCCCCNCC [SL-11102]		< 4.51	7.57	7.52	6.14	6.14	6.82	pIC50 [4]: 6.82; pEC50 [4]: 6.82; pIC50 [6, 11]: 4.91; pEC50 ([6]; Homo sapiens): 6.82; pIC50 [7]: < 4.51; pEC50 [7]: < 4.51; pEC50 [8]: 6.82
CCNCCCCNCC1CCC1CNCCCCNCC (centres unmarked) [SL-11099]		5.60	7.85	7.85	6.00	6.00	6.96	pEC50 ([6]; Homo sapiens): 6.29; pIC50 [6, 12]: 6.19; pIC50 [7]: 4.58; pEC50 [7]: 4.58; pEC50 [8]: 6.96
O=C1C=C(OCCCCCNc2c3ccccc3nc3ccccc23)c2ccccc2C1=O [SL-11059, Acridine-quinone]	5.37							
CCNC/C=C\CNC/C=C\CNCCCCNCC [SL-11119]		< 4.51	7.10	7.10	6.01	6.01		pIC50 [4]: 6.36; pEC50 [4]: 6.36
CN1CCN(c2ccc3nc(-c4ccc5nc(-c6ccc(O)cc6)[nH]c5c4)[nH]c3c2)CC1 [SL-11063]								pIC50 ([1]; Table 5, non-quinone structure): < 4.51
NCCCCCC(=O)OCCCCCCOC1=CC(=O)C(=O)c2ccccc21 [SL-11075]	5.70							
N#Cc1ccc(OCCCCCCOC2=CC(=O)C(=O)c3ccccc32)cc1 [SL-11062]	5.77							
CCNCCCCNCc1ccccc1CNCCCCNCC [SL-11104]		< 4.51	5.03	5.03	4.59	4.59	4.83	pIC50 [6, 11]: 6.37; pEC50 ([6]; Homo sapiens): < 4.51; pIC50 [7]: < 4.51; pEC50 [7]: < 4.51; pEC50 [8]: 4.83
CCNCCCNCc1ccccc1CNCCCNCC [SL-11094]		< 4.51	4.90	4.81	4.54	4.54	< 4.51	pIC50 [6, 11]: < 4.51; pEC50 ([6]; Homo sapiens): < 4.51; pIC50 [7]: < 4.51; pEC50 [7]: < 4.51; pEC50 [8]: < 4.51
CCNCCCCNCC1CCC1CNCCCCNCC (centres unmarked) [SL-11100]								pIC50 [6, 12]: 5.66
O=C1C=C(OCCCCCCOc2ccc(OC3OC(CO)C(O)C(O)C3O)cc2)c2ccccc2C1=O (centres unmarked) [SL-11066]	< 4.51							
